Experimental data as given in patent publication US20060040255A1, “Cell line designated KT-1 established from tongue epithelial and use thereof” (National Food Research Institute, priority 2003, published 2006).

How the values were obtained:
[1] = molecular target: sweet taste receptors T1r2 and T1r3 (Mus musculus, UniProt Q925D8+Q925I4); settings: KT-1C cells; final concentration 5 mM; 0.5 minutes after addition
Description: KT-1C cells which had been washed twice in PBS(−) were incubated for 30 minutes at room temperature with 1 ml of imaging buffer (NaHCO3 22 mM, KCl 5 mM, NaH2PO4 1.25 mM, glucose 10 mM, NaCl 124 mM) to which 5 μl of Fura-2-AM (1 mM dissolved in DMSO, Molecular Probe) and 5 μl of Cremophor (Nacalai Tesque) had been added, incorporating Fura-2-AM into the cells. They were then washed twice with imaging buffer to remove any Fura-2-AM that had not been incorporated into the cells.
Next the dish was filled with 1 ml of imaging buffer to which 1 mM MgCl2 and 2 mM CaCl2 had been added, and the artificial sweetener Acesul fame K (Fluka), which is known to be a ligand for sweet taste receptors T1r2 and T1r3, was added to a final concentration of 5 mM. […] After measurement, changes over time in florescence in the various cells were converted to changes in calcium concentration by the AquaCosmos software, and graphed.

[2] = molecular target: salt sensing channel αENaC (Mus musculus, UniProt Q61180); settings: KT-1C cells
salt sensing channel αENaC, sequence (Q61180 whole entry): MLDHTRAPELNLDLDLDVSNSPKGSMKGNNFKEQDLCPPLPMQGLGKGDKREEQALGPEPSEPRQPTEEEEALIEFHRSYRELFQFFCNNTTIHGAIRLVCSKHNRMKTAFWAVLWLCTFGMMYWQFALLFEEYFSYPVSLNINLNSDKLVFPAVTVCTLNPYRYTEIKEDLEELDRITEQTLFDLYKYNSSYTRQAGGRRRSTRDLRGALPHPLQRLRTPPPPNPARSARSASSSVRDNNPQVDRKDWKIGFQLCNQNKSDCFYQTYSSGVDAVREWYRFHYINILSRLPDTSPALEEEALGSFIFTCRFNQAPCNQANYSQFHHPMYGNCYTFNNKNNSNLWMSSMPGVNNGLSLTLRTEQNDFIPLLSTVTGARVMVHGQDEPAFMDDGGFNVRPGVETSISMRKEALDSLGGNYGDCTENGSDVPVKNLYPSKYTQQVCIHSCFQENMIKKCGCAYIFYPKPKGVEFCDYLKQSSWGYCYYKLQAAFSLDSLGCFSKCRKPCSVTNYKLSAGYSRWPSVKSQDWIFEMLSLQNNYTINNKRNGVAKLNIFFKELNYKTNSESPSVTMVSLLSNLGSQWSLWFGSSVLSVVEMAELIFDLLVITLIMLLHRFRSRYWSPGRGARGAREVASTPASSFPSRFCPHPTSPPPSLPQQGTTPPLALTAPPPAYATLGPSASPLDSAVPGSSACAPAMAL
Description: Next they were washed twice with Na imaging buffer to remove any CoroNa-Red that had not been incorporated into the cells.
Next, the dish was filled with 1 mL of imaging buffer to which 1 mM MgCl2 and 2 mM CaCl2 had been added, and NaCl, which is known to be a salt taste channel ligand, was then added thereto to a final concentration of 50 mM. It is known that when cells with salt taste response ability (in other words, cells in which the salt sensing channel αENaC is functionally expressed) respond to NaCl (salty substance), sodium flows into the cytoplasm, and the concentration of sodium in the cytoplasm rises. Therefore, the fluorescence (580 nm) produced by CoroNa-Red when sodium flowed into the cytoplasm due to addition of NaCl was measured over time using an inverted fluorescence microscope (Leica, DMRIB) equipped with a CCD camera (Hamamatsu Photonics) controlled by AquaCosmos software (Hamamatsu Photonics). After measurement, changes over time inflorescence in the various cells were converted to changes in sodium concentration using the AquaCosmos software, and graphed.

salt taste channel αENaC = assay: Hormone regulation of αENaC expression in cell line KT-1B (RT-PCR); type: cell-based, mouse; settings: cell line KT-1B treated for 6 days; aldosterone 1 μM, hydrocortisone 0.2 μM; compared with progesterone 0.1 μM
Description: While being cultured in the presence of hydrocortisone, cell line KT-1B constantly expresses the amiloride-sensitive sodium channel alpha subunit (αENaC), which might be involved in salt taste response.
Therefore, cell line KT-1B was treated for 6 days with the hormone progesterone (0.1 μM), aldosterone (1 μM) or hydrocortisone (0.2 μM), and expression of the salt sensing channel αENaC was investigated.
RNA was extracted with Trizol solution from the treated cell line KT-1B, and cDNA was synthesized on a scale of 40 μl using the resulting 2 μg of RNA and a Super Script First Strand cDNA synthesis kit. Using 1 μl of this cDNA as the template and primers specific to salt taste channel αENaC (0.2 μM each, Seq. Nos. 13 and 14), 2.5 units of Takara Taq were added and a PCR reaction consisting of denaturation at 95° C. for 5 minutes followed by 35 cycles of 1 minute at 95° C., 1 minute at 58° C. and 2 minutes at 72° C. was performed in a 25 μl system. 8 μl of the PCR reaction liquid was electrophoresed on a 1.5% agarose gel, stained with ethidium bromide and photographed.

sweet taste receptors T1r2 and T1r3, sequence (Q925I4 20-843): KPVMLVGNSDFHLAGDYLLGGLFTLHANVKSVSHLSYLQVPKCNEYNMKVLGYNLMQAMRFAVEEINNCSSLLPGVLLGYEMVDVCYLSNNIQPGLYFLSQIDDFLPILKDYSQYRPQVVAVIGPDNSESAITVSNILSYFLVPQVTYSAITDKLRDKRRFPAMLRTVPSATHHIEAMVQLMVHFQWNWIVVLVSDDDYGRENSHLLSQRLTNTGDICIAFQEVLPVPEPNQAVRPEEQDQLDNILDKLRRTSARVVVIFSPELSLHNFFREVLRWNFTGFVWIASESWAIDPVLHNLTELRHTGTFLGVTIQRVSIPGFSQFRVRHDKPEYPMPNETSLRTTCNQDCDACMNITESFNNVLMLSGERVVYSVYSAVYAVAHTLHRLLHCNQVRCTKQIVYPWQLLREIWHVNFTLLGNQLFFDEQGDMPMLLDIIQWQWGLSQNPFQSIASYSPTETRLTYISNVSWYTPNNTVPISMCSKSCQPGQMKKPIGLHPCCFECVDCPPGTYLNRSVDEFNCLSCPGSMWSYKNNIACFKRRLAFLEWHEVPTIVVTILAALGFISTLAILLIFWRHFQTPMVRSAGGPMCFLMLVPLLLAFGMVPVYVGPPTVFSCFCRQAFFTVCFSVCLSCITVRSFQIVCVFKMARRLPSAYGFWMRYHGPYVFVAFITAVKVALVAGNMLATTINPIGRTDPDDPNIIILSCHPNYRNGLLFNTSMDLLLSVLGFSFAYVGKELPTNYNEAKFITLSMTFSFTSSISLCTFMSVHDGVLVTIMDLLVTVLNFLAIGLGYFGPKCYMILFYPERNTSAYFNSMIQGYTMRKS
sweet taste receptors T1r2 and T1r3, sequence (Q925D8 21-858): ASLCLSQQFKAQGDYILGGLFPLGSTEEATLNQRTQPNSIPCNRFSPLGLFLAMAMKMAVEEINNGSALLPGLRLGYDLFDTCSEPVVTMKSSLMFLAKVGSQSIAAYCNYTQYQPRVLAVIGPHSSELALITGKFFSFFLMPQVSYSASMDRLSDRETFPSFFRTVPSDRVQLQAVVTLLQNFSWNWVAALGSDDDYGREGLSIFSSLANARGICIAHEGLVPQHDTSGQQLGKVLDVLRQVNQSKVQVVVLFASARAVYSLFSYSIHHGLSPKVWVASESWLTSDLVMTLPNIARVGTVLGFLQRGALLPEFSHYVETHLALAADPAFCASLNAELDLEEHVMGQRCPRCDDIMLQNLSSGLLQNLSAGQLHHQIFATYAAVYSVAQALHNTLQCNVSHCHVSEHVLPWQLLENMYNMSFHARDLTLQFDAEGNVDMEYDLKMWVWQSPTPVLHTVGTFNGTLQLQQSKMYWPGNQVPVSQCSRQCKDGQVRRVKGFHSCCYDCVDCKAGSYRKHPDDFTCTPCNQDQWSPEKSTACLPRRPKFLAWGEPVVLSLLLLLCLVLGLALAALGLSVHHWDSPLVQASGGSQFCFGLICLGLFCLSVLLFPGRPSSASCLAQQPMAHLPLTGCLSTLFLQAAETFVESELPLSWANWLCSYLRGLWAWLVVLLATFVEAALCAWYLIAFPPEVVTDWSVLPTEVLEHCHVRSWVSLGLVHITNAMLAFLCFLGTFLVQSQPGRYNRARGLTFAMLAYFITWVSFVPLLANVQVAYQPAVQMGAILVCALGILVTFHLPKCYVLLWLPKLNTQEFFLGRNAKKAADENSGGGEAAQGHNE

Question: With `CC1=CC(=O)[N-]S(=O)(=O)O1.[K+]` [Acesulfame K] as the compound, how does the “intercellular calcium concentration (Fura-2 fluorescence) after addition” value [1] read?
Answer: rise in intercellular calcium concentration

Question: Which “dependence of intercellular sodium concentration on added concentration” value ([2]; 50 mM then 150 mM added) does the source give for `[Cl-].[Na+]` [NaCl] here?
Answer: affected by the concentration of added NaCl

Question: And the “intercellular sodium concentration (CoroNa-Red fluorescence) after addition” value ([2]; final concentration 50 mM, 0.5 minutes after addition)?
Answer: rise in intercellular sodium concentration

Question: With `C[C@]12CCC(=O)C=C1CC[C@@H]1[C@@H]2[C@@H](O)C[C@]2(C=O)[C@@H](C(=O)CO)CC[C@@H]12` [aldosterone] as the compound, how does the “amount of expression of the salt taste channel αENaC (mRNA, RT-PCR)” value (salt taste channel αENaC) read?
Answer: greater

Question: For `C[C@]12CCC(=O)C=C1CC[C@@H]1[C@@H]2[C@@H](O)C[C@@]2(C)[C@H]1CC[C@]2(O)C(=O)CO` [hydrocortisone], which “amount of expression of the salt taste channel αENaC (mRNA, RT-PCR)” value (salt taste channel αENaC) is on record?
Answer: greater
